Experiment: xn = mol fraction of the nth substance listed
Conditions: 101.3 kPa

`CO` + CC[n+]1ccn(C)c1C.F[B-](F)(F)F gave a viscosity (293.15 K, x2 = 0) of 0.57 mPa·s, a viscosity (298.15 K, x2 = 0) of 0.532 mPa·s and a viscosity (303.15 K, x2 = 0) of 0.498 mPa·s. The viscosity (313.15 K, x2 = 0) was 0.439 mPa·s, the viscosity (318.15 K, x2 = 0) was 0.414 mPa·s and the viscosity (323.15 K, x2 = 0) was 0.39 mPa·s. The viscosity (328.15 K, x2 = 0) was 0.37 mPa·s and the viscosity (333.15 K, x2 = 0) was 0.351 mPa·s.

Work on `CC[n+]1ccn(C)c1C.F[B-](F)(F)F` + CO yielded a viscosity (293.15 K, x1 = 0.0165) of 0.863 mPa·s, a viscosity (293.15 K, x1 = 0.0364) of 0.999 mPa·s and a viscosity (293.15 K, x1 = 0.0608) of 1.27 mPa·s. For the same compound, the viscosity (293.15 K, x1 = 0.0915) was 1.45 mPa·s, the viscosity (293.15 K, x1 = 0.1848) was 2.75 mPa·s and the viscosity (293.15 K, x1 = 0.2607) was 4.43 mPa·s. It also gave a viscosity (293.15 K, x1 = 0.3768) of 9.29 mPa·s, a viscosity (298.15 K, x1 = 0.0165) of 0.803 mPa·s and a viscosity (298.15 K, x1 = 0.0364) of 0.925 mPa·s. For the same compound, the viscosity (298.15 K, x1 = 0.0608) was 1.177 mPa·s, the viscosity (298.15 K, x1 = 0.1313) was 1.77 mPa·s and the viscosity (298.15 K, x1 = 0.1848) was 2.5 mPa·s. For the same compound, the viscosity (298.15 K, x1 = 0.3768) was 8.18 mPa·s, the viscosity (303.15 K, x1 = 0.0165) was 0.75 mPa·s and the viscosity (303.15 K, x1 = 0.0608) was 1.096 mPa·s. The viscosity (303.15 K, x1 = 0.0915) was 1.26 mPa·s, the viscosity (303.15 K, x1 = 0.1848) was 2.28 mPa·s and the viscosity (303.15 K, x1 = 0.2607) was 3.6 mPa·s. The viscosity (303.15 K, x1 = 0.3768) was 7.17 mPa·s, the viscosity (308.15 K, x1 = 0.0165) was 0.701 mPa·s and the viscosity (308.15 K, x1 = 0.0364) was 0.801 mPa·s. It also gave a viscosity (308.15 K, x1 = 0.1848) of 2.09 mPa·s, a viscosity (308.15 K, x1 = 0.2607) of 3.28 mPa·s and a viscosity (308.15 K, x1 = 0.3768) of 6.85 mPa·s. For the same compound, the viscosity (313.15 K, x1 = 0.0165) was 0.658 mPa·s, the viscosity (313.15 K, x1 = 0.0364) was 0.752 mPa·s and the viscosity (313.15 K, x1 = 0.0608) was 0.953 mPa·s. The viscosity (313.15 K, x1 = 0.0915) was 1.086 mPa·s, the viscosity (313.15 K, x1 = 0.1313) was 1.4 mPa·s and the viscosity (313.15 K, x1 = 0.2607) was 2.99 mPa·s. It also gave a viscosity (313.15 K, x1 = 0.3768) of 6.15 mPa·s, a viscosity (318.15 K, x1 = 0.0165) of 0.619 mPa·s and a viscosity (318.15 K, x1 = 0.0364) of 0.706 mPa·s. For the same compound, the viscosity (318.15 K, x1 = 0.0608) was 0.893 mPa·s, the viscosity (318.15 K, x1 = 0.0915) was 1.012 mPa·s and the viscosity (318.15 K, x1 = 0.1313) was 1.3 mPa·s. For the same compound, the viscosity (318.15 K, x1 = 0.1848) was 1.77 mPa·s, the viscosity (318.15 K, x1 = 0.2607) was 2.74 mPa·s and the viscosity (323.15 K, x1 = 0.0165) was 0.583 mPa·s. The viscosity (323.15 K, x1 = 0.0608) was 0.839 mPa·s, the viscosity (323.15 K, x1 = 0.1848) was 1.63 mPa·s and the viscosity (323.15 K, x1 = 0.2607) was 2.54 mPa·s. The viscosity (323.15 K, x1 = 0.3768) was 5.01 mPa·s, the viscosity (328.15 K, x1 = 0.0165) was 0.55 mPa·s and the viscosity (328.15 K, x1 = 0.0364) was 0.626 mPa·s. It also gave a viscosity (328.15 K, x1 = 0.0608) of 0.79 mPa·s, a viscosity (328.15 K, x1 = 0.1848) of 1.52 mPa·s and a viscosity (328.15 K, x1 = 0.2607) of 2.34 mPa·s. The viscosity (333.15 K, x1 = 0.0165) was 0.522 mPa·s, the viscosity (333.15 K, x1 = 0.0364) was 0.59 mPa·s and the viscosity (333.15 K, x1 = 0.0608) was 0.749 mPa·s. It also gave a viscosity (333.15 K, x1 = 0.0915) of 0.816 mPa·s, a viscosity (333.15 K, x1 = 0.2607) of 2.17 mPa·s and a viscosity (333.15 K, x1 = 0.3768) of 4.13 mPa·s.
